This note sets out measurements from patent US20230218577A1, “USE OF HEAT SHOCK PROTEIN INHIBITORS FOR THE TREATMENT OF NEURODEVELOPMENTAL DISORDERS” (The Children's Medical Center Corporation, priority 2020, published 2023).

For data set [1], the system named is cilia (ACIII) in Tsc2-sh hippocampal neurons. As to the kind of experiment: cilia^HCA (GFP+ ACIII+ neurons) in Tsc2-sh neurons. It counts as cell-based, rat. The following applies: for ciliation, acute effect: 24 hrs at DIV20, concentrations that inhibited mTORC1 (8.5 μM 17-AGG, 9 μM GA, 5.5 μM rapamycin); for rescue of cilia at later ages in culture: four-day treatment between DIV16-20, endpoint DIV20. From the text:
To investigate how mTORC1 dysregulation due to neuronal TSC loss affected ciliation, High Content image-based Assays (HCAs) were developed for unbiased quantification of cilia and mTORC1 activity (hereafter cilia^HCA and mTORC1^HCA) in primary neurons. As an in vitro model of TSC, rat hippocampal neurons transduced with lentiviral vectors (LV) expressing a short hairpin RNA (shRNA) were used directed against either the Tsc2 (Tsc2-sh) or the luciferase gene as a control (ctrl-sh) tagged with GFP. LV-mediated Tsc2 knockdown recapitulates several in vivo manifestations observed in mouse models of TSC (Di Nardo et al., Tuberous sclerosis complex activity is required to control neuronal stress responses in an mTOR-dependent manner; J Neurosci 29, 5926-5937 (2009); Di Nardo et al., Neuronal Tsc1/2 complex controls autophagy through AMPK-dependent regulation of ULK1; Hum Mol Genet 23, 3865-3874 (2014); Ebrahimi-Fakhari et al., Impaired Mitochondrial Dynamics and Mitophagy in Neuronal Models of Tuberous Sclerosis Complex; Cell Rep 17, 1053-1070 (2016); Ercan et al., Neuronal CTGF/CCN2 negatively regulates myelination in a mouse model of tuberous sclerosis complex; The Journal of experimental medicine 214, 681-697 (2017); Nie et al., The Stress-Induced Atf3-Gelsolin Cascade Underlies Dendritic Spine Deficits in Neuronal Models of Tuberous Sclerosis Complex; J Neurosci 35, 10762-10772 (2015); Nie et al., Tsc2-Rheb signaling regulates EphA-mediated axon guidance. Nat Neurosci 13, 163-172 (2010)). In vitro phenotypes include robust TSC2 protein downregulation and mTORC1 activation as shown by the time course of increased phosphorylation of ribosomal protein S6 at serine 240/244 (pS6) (FIGS. 8A-B). Both the cilia^HCA and mTORC1^HCA were optimized as imaged-based assays, where cilia and mTORC1 activity was monitored by immunofluorescent staining of ACIII to identify cilia and pS6 as a proxy of mTORC1 activation (FIGS. 8C-F). Neurons were transduced in culture at day in vitro (DIV) 1, and cilia and mTORC1 activity were assessed in a time course experiment at DIV2, 5, 7, 13, and 20 (FIG. 2A). LV-infected neurons with cilia or with phosphorylated S6 (GFP^+ ACIII^+ and GFP^+pS6^+ respectively) were identified by automated algorithms to detect subcellular structures and their co-localization specifically optimized for each assay. In control neurons, cilia development was observed between DIV2-5, which remained stable between DIV7 and DIV20 (FIGS. 2B, D). […] Reduced ciliation was validated by manual imaging and quantification of LV-infected neurons co-labeled with ACIII/centrin (FIGS. 8G-H). No changes in size or ACIII intensity were detected in the remaining cilia of the Tsc2-sh neurons (FIGS. 8I-J).
Rat hippocampal neurons were plated at a density of 20,000/well in 96-well plates (Greiner #655090) coated with Poly-D-Lysine (PDL) at 20 μg/ml. Neurons were transduced with lentivirus and processed for immunofluorescent staining at endpoint assay by fixation with 4% PFA followed by permeabilization in ice cold 100% Methanol. Neurons were then washed 3 times in PBS/0.05% Tween (PBT) containing 50 mM glycine and blocked in 2% bovine serum albumin (Sigma) in PBT (PBT/Block) at RT. For consistent and robust identification of the LV-infected neurons, cultures of both the cilia^HCA and mTORC1^HCA were stained with GFP antibody and co-labeled with ACIII or pS6 for the identification of respectively cilia and mTORC1 activity. Primary antibodies were incubated in PBT/Block overnight. The following day, neurons were washed in PBT and incubated with secondary antibodies followed by Hoechst staining. After washing with PBT, neurons were kept in PBS buffer. Aside from primary and secondary antibody administration, all the washing for immunofluorescent staining was done using the Agilent bravo automated liquid handler. […]

The next data set concerns Tsc2-sh neurons. As to the kind of experiment: Toxicity: number of nuclei per field in Tsc2-sh neurons. The class given is cell-based, rat. The following applies: four days (DIV9-13), nuclei stained at DIV13. The procedure: HSP90 inhibitors were tested to determine their effect on ciliation in TSC2-deficient neurons. Tsc2 was knocked down using an shRNA in primary rat neurons. The neurons were then treated with different doses of either CUDC-305 or NPV-HSP-990. To assess toxicity for CUDC-305, Tsc2-sh neurons were treated with increasing concentrations (6 nM, 12.5 nM, 25 nM, 50 nM, 100 nM, 200 nM, 400 nM) of CUDC-305 for four days (DIV9-13) and then stained for nuclei at DIV13 to determine the number of nuclei per field. […] The effect of ciliation of Tsc2-sh neurons after treatment with CUDC-305 was then examined.
Another HSP90 inhibitor, NPV-HSP-990, was examined for its effect on ciliation in TSC2-deficient neurons. To assess toxicity for NPV-HSP-990, Tsc2-sh neurons were treated with increasing concentrations (0.05 nM, 0.16 nM, 0.5 nM, 1.5 nM, 4.4 nM, 13.3 nM, 40 nM) of NPV-HSP-990 for four days (DIV9-13) and then stained for nuclei at DIV 13 to determine the number of nuclei per field.

Setting [2] is: four days (DIV9-13), any dose tested.

By EC50 is commonly meant the concentration giving half of the maximal effect. `C=CCNC1=C2C[C@@H](C)C[C@H](OC)[C@H](O)[C@@H](C)/C=C(\C)[C@H](OC(N)=O)[C@@H](OC)C=C/C=C(\C)C(=O)NC(=CC1=O)C2=O` [17-AGG, 3 S,5S,6R,7S,8E,10R,11S,12E,14E)-21-(allylamino)-6-hydroxy-5,11-dimethoxy-3,7,9,15-tetramethyl-16,20,22-trioxo-17-azabicyclo[16.3.1]docosa-8,12,14,18,21-pentaen-10-yl] carbamate]: in data set [1], the “ciliation, acute effect” value was “Neither of the Hsp90 inhibitors nor rapamycin rescued ciliation” and the “rescue of cilia at later ages in culture” value is reported as “Neither rapamycin nor a four-day 17-AGG treatment regimen was able to rescue the cilia”. Besides, in data set [1] (Rattus norvegicus, Hippocampal neuron, treatment between DIV9-13, read-out: EC50^cilia (cilia rescue)), the EC50 was 15 nM.

Regarding `CO[C@H]1C[C@@H]2CC[C@@H](C)[C@@](O)(O2)C(=O)C(=O)N2CCCC[C@H]2C(=O)O[C@H]([C@H](C)C[C@@H]2CC[C@@H](O)[C@H](OC)C2)CC(=O)[C@H](C)/C=C(\C)[C@@H](O)[C@@H](OC)C(=O)[C@H](C)C[C@H](C)/C=C/C=C/C=C/1C` [rapamycin], the “ciliation, acute effect” value in data set [1] is reported as “Neither of the Hsp90 inhibitors nor rapamycin rescued ciliation”. The “rescue of cilia at later ages in culture” value in data set [1] is “Neither rapamycin nor a four-day 17-AGG treatment regimen was able to rescue the cilia”. Further, the ciliation entry was “no effect” in data set [1] (rapamycin 20 nM acute (1 day) treatment); “significant increase” in data set [1] (rapamycin 20 nM for eight days between DIV5-13); “significant increase” in data set [1] (rapamycin 20 nM for four days between DIV9-13); “no effect” in data set [1] (rapamycin 20 nM, later ages (DIV20) in culture).

For the compound `COc1cccc(-c2cc(F)ccc2[C@H]2Cc3nc(N)nc(C)c3C(=O)N2)n1` [NPV-HSP-990, (R)-2-amino-7-((R)-4-fluoro-2-(6-methoxypyridin-2-yl)phenyl)-4-methyl-7,8-dihydropyrido[4,3-d]pyrimidin-5(6H)-one], the “doses at which the number of nuclei began to reduce (suggestive of toxicity)” value in the data set with Tsc2-sh neurons is “above 4.4 nM”. The ciliation result in data set [1] (setting [2]) is “not observed”.

For `CN(C)c1cc2c(cc1Sc1nc3c(N)nccc3n1CCNCC(C)(C)C)OCO2` [CUDC-305, 4-amino-2-[[6-(dimethylamino)-1,3-benzodioxol-5-yl]thio]-N-(2,2-dimethylpropyl)-1H-imidazo[4,5-c]pyridine-1-ethanamine], the “doses at which the number of nuclei began to reduce (suggestive of toxicity)” value in the data set on Tsc2-sh neurons is “above 100 nM”. In addition, in data set [1] (setting [2]), the ciliation entry is “No increase”.
